# Assay results as given in patent publication US20120295845A1, “IMIDAZO-PYRAZOLES AS GPR119 INHIBITORS” (Pfizer Inc, priority 2009, published 2012).
# “And” between values parts separate entries of the source, which are not always exact repeats. Identical values can stand only once.
# Molecular target: T1, human GPR119 (Homo sapiens, UniProt Q8TDV5)
# T1 construct: host or cells: HEK293-CRE beta-lactamase cells
# T1 sequence (Q8TDV5 1-335): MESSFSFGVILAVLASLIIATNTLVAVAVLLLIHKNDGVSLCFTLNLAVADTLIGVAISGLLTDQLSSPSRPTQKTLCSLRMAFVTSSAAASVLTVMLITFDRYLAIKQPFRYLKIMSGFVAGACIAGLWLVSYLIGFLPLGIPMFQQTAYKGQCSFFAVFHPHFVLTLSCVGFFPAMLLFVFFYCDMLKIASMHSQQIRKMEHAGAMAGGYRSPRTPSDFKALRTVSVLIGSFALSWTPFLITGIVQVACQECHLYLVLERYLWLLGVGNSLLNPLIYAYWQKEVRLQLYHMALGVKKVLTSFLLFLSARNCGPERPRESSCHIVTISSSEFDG
# Assay: cAMP functional assay (HTRF, hGPR119 HEK-CRE beta-lactamase cells)
# Format: cell-based
# Conditions: one value per run; for EC50: hGPR119 HEK-CRE beta-lactamase cells, HTRF cAMP, 30 min incubation with IBMX; for Intrinsic Activity* (cAMP) / Emax: percent of maximal activity relative to standard GPR119 agonist (WO2005121121) at 10 μM; for Emax: read-out: Intrinsic Activity* (cAMP)
# Procedure: GPR119 agonist activity was also determined with a cell-based assay utilizing an
# HTRF (Homogeneous Time-Resolved Fluorescence) cAMP detection kit (cAMP dynamic 2 Assay Kit; Cis Bio cat # 62AM4PEC) that measures cAMP levels in the cell. The method is a competitive immunoassay between native cAMP produced by the cells and the cAMP labeled with the dye d2. The tracer binding is visualized by a Mab anti-cAMP labeled with Cryptate. The specific signal (Le. energy transfer) is inversely proportional to the concentration of cAMP in either standard or sample.
# Specifically, hGPR119 HEK-CRE beta-lactamase cells (Invitrogen 2.5×10^7/mL; the same cell line used in the beta-lactamase assay described above) are removed from cryopreservation and diluted in growth medium (Dulbecco's modified Eagle medium high glucose (DMEM; Gibco Cat # 11995-065), 1% charcoal dextran treated fetal bovine serum (CD serum; HyClone Cat # SH30068.03), lx MEM Nonessential amino acids (Gibco Cat # 15630-080) and 25 mM HEPES pH 7.0 (Gibco Cat # 15630-080)). The cell concentration was adjusted to 1.5×10^5 cells/mL and 30 mLs of this suspension was added to a T-175 flask and incubated at 37 degrees Celsius in a humidified environment in 5% carbon dioxide. After 16 hours (overnight), the cells were removed from the T-175 flask (by rapping the side of the flask), centrifuged at 800×g and then re-suspended in assay medium (1×HBSS+CaCl2+MgCl2 (Gibco Cat # 14025-092) and 25 mM HEPES pH 7.0 (Gibco Cat # 15630-080)). The cell concentration was adjusted to 6.25×10^5 cells/mL with assay medium and 8 μl of this cell suspension (5000 cells) was added to each well of a white Greiner 384-well, low-volume assay plate (VWR cat # 82051-458).
# Varying concentrations of each compound to be tested were diluted in assay buffer containing 3-isobutyl-1-methylxanthin (1BMX; Sigma cat #15879) and added to the assay plate weds in a volume of 2 microL (final BMX concentration was 400 microM and final DMSO concentration was 0.58%). Following 30 minutes incubation at room temperature, 5 microL of labeled d2 cAMP and 5 microL of anti-cAMP antibody (both diluted 1:20 in cell lysis buffer; as described in the manufacturers assay protocol) were added to each well of the assay plate. The plates were then incubated at room temperature and after 60 minutes, changes in the HTRF signal were read with an Envision 2104 multilabel plate reader using excitation of 330 nm and emissions of 615 and 665 nm. Raw data were converted to nM cAMP by interpolation from a cAMP standard curve (as described in the manufacturer's assay protocol) and EC50 determinations were made from an agonist-response curves analyzed with a curve fitting program using a 4-paramter logistic dose response equation.
Structure (SMILES),EC50,Intrinsic Activity* (cAMP),Emax
"Cc1c(O[C@H]2CCN(C(=O)OC3(C)CC3)C[C@H]2F)ncnc1N1CCn2nccc21 (racemic) [Example 3, 1-Methylcyclopropyl (3R,4S)-4-{[6-(2,3-dihydro-1H-imidazo[1,2-b]pyrazol-1-yl)-5-methylpyrimidin-4-yl]oxy}-3-fluoropiperidine-1-carboxylate (racemic)]",66 nM and 68 nM,61%,80%
"Cc1c(O[C@@H]2CCN(C(=O)OC3(C)CC3)C[C@@H]2F)ncnc1N1CCn2nccc21 (single isomer, unassigned) [Example 5]",38 nM and 36 nM and 34 nM and 49 nM and 47 nM,68% and 81% and 61%,76%

# Other lines, results leading:
EC50,Intrinsic Activity* (cAMP),Emax,Structure (SMILES)
32 nM and 45 nM,28%,31%,"Cc1c(O[C@H]2CCN(C(=O)OC(C)C)C[C@H]2F)ncnc1N1CCn2nccc21 (racemic) [Example 4, Isopropyl (3R,4S)-4-{[6-(2,3-dihydro-1H-imidazo[1,2-b]pyrazol-1-yl)-5-methylpyrimidin-4-yl]oxy}-3-fluoropiperidine-1-carboxylate (racemic)]"
40 nM and 140 nM and 48 nM and 88 nM and 82 nM,82% and 89% and 76% and 83%,86%,"Cc1c(O[C@H]2CCN(C(=O)OC3(C)CC3)C[C@H]2F)ncnc1N1CCn2nccc21 (single isomer, unassigned) [Example 6]"
,27%,28%,"Cc1c(OC2CCN(C(=O)OC(C)C)CC2)ncnc1N1CCn2nccc21 [Example 1, Isopropyl 4-{[6-(2,3-dihydro-1H-imidazo[1,2-b]pyrazol-1-yl)-5-methylpyrimidin-4-yl]oxy}piperidine-1-carboxylate]"
117 nM and 255 nM,,71%,"Cc1c(OC2CCN(C(=O)OC3(C)CC3)CC2)ncnc1N1CCn2nccc21 [Example 2, 1-Methylcyclopropyl 4-{[6-(2,3-dihydro-1H-imidazo[1,2-b]pyrazol-1-yl)-5-methylpyrimidin-4-yl]oxy}piperidine-1-carboxylate]"
